Columns and labels:
[1] = system: beet armyworm (BAW; Spodoptera exigua: Lepidoptera); test: 96-well microtiter plate-based high throughput (HTS) diet bioassay on beet armyworm (BAW HTS); format: in vivo; details: BAW eggs, 12 μg test compound per well, mortality at 6 d post-treatment, mortality class; for pest or weed control at 12 µg/well, 12 µg/well: Spodoptera exigua, 144 h, read-out: BAW HTS
How it was run: (§1)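 Spodoptera exigua eggs on artificial diet in 96-well plates, surface-treated with 12 μg compound in DMSO-acetone-water; dark, 29° C, mortality at 6 d, six replicates. 128-well trays: second-instar larvae on diet treated at 50 μg/cm^2, 25° C, 14:10 light-dark, six days, mortality averaged over eight wells.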

[2] = system: beet armyworm (BAW; Spodoptera exigua: Lepidoptera); test: 128-well diet tray assay on beet armyworm (BAW 50); format: in vivo; details: 128-well diet tray assay, second instar BAW larvae, mortality class; for BAW 50 ug/cm2: 50 μg/cm^2 of test compound on diet; for pest or weed control at 50 µg/cm2, 50 µg/cm2: Spodoptera exigua, 144 h, 50 μg/cm2 of test compound on diet, read-out: BAW 50 ug/cm2
How it was run: as §1

[3] = 96-well microtiter plate HTS diet assay

SMILES | BAW HTS ([1]; 96-well HTS diet bioassay) | BAW HTS [1, 3] | BAW 50 ug/cm2 [2] | pest or weed control at 12 µg/well, 12 µg/well ([1]; 96-well HTS diet bioassay) | pest or weed control at 50 µg/cm2, 50 µg/cm2 [2]
COC1C(C)OC(ON=Cc2ccc(-c3ncn(-c4ccc(C(C)(C)C)cc4)n3)cc2)C(OC)C1OC (stereo not drawn) [Compound 86] | B (either (1) the compound was tested and less than 50 percent mortality was observed or (2) the compound was not tested) | B (either (1) the compound was tested and less than 50 percent mortality was observed or (2) the compound was not tested) | A (the compound was tested and at least 50 percent mortality was observed) |  | 
COC1C(C)OC(ON=Cc2ccc(-c3ncn(-c4ccc(SC(F)(F)F)cc4)n3)cc2)C(OC)C1OC (stereo not drawn) [Compound 87] | B (either (1) the compound was tested and less than 50 percent mortality was observed or (2) the compound was not tested) | B (either (1) the compound was tested and less than 50 percent mortality was observed or (2) the compound was not tested) | A (the compound was tested and at least 50 percent mortality was observed) |  | 
COC1C(C)OC(ON=Cc2ccc(-c3ncn(-c4ccc(OC(F)(F)C(F)F)cc4)n3)cc2)C(OC)C1OC (stereo not drawn) [Compound 88] | B (either (1) the compound was tested and less than 50 percent mortality was observed or (2) the compound was not tested) | B (either (1) the compound was tested and less than 50 percent mortality was observed or (2) the compound was not tested) | A (the compound was tested and at least 50 percent mortality was observed) |  | 
COC1C(C)OC(ON=Cc2ccc(-c3ncn(-c4ccc(OC(F)(F)C(F)(F)F)cc4)n3)cc2)C(OC)C1OC (stereo not drawn) [Compound 89] | B (either (1) the compound was tested and less than 50 percent mortality was observed or (2) the compound was not tested) | B (either (1) the compound was tested and less than 50 percent mortality was observed or (2) the compound was not tested) | A (the compound was tested and at least 50 percent mortality was observed) |  | 
COC1C(C)OC(ON=Cc2ccc(-c3ncn(-c4ccc(SC)cc4)n3)cc2)C(OC)C1OC (stereo not drawn) [Compound 90] | B (either (1) the compound was tested and less than 50 percent mortality was observed or (2) the compound was not tested) | B (either (1) the compound was tested and less than 50 percent mortality was observed or (2) the compound was not tested) | A (the compound was tested and at least 50 percent mortality was observed) |  | 
COC1C(C)OC(ON=Cc2ccc(-c3ncn(-c4cccc(OC(F)(F)F)c4)n3)cc2)C(OC)C1OC (stereo not drawn) [Compound 91] | B (either (1) the compound was tested and less than 50 percent mortality was observed or (2) the compound was not tested) | B (either (1) the compound was tested and less than 50 percent mortality was observed or (2) the compound was not tested) | A (the compound was tested and at least 50 percent mortality was observed) |  | 
CCOC1C(C)OC(ON=Cc2ccc(-c3ncn(-c4ccc(OC(F)(F)C(F)(F)F)cc4)n3)cc2)C(OCC)C1OCC (stereo not drawn) [Compound 92] | B (either (1) the compound was tested and less than 50 percent mortality was observed or (2) the compound was not tested) | B (either (1) the compound was tested and less than 50 percent mortality was observed or (2) the compound was not tested) | A (the compound was tested and at least 50 percent mortality was observed) |  | 
CCOC1C(OC)C(C)OC(ON=Cc2ccc(-c3ncn(-c4ccc(OC(F)(F)C(F)(F)F)cc4)n3)cc2)C1OC (stereo not drawn) [Compound 93] | A (the compound was tested and at least 50 percent mortality was observed) | A (the compound was tested and at least 50 percent mortality was observed) | A (the compound was tested and at least 50 percent mortality was observed) |  | 
CO[C@@H]1[C@@H](OC)[C@H](C)O[C@@H](O/N=C/c2ccc(-c3ncn(-c4ccc(OC(F)(F)C(F)C(F)(F)F)cn4)n3)cc2)[C@@H]1OC (stereo partly drawn) [Compound 94, 4-{1-[5-(1,1,2,3,3,3-hexafluoropropoxy)-pyridinyl]-1H-[1,2,4]triazol-3-yl}-benzaldehyde O-((2S,3R,4R,5S,6S)-3,4,5-trimethoxy-6-methyl-tetrahydropyran-2-yl)-oxime] |  | B (either (1) the compound was tested and less than 50 percent mortality was observed or (2) the compound was not tested) | A (the compound was tested and at least 50 percent mortality was observed) | < 50% | > 50%
COC1C(C)OC(ON=Cc2ccc(-c3nc(-c4ccc(C(F)(F)F)cc4)n[nH]3)cc2)C(OC)C1OC (stereo not drawn) [Compound 95] | B (either (1) the compound was tested and less than 50 percent mortality was observed or (2) the compound was not tested) | B (either (1) the compound was tested and less than 50 percent mortality was observed or (2) the compound was not tested) | A (the compound was tested and at least 50 percent mortality was observed) |  | 
COC1C(C)OC(ON=Cc2ccc(-c3nc(-c4ccc(Cl)cc4)n[nH]3)cc2)C(OC)C1OC (stereo not drawn) [Compound 96] | B (either (1) the compound was tested and less than 50 percent mortality was observed or (2) the compound was not tested) | B (either (1) the compound was tested and less than 50 percent mortality was observed or (2) the compound was not tested) | A (the compound was tested and at least 50 percent mortality was observed) |  | 
COC1C(C)OC(ON=Cc2ccc(-c3nc(-c4ccc(C(C)(C)C)cc4)n[nH]3)cc2)C(OC)C1OC (stereo not drawn) [Compound 97] | B (either (1) the compound was tested and less than 50 percent mortality was observed or (2) the compound was not tested) | B (either (1) the compound was tested and less than 50 percent mortality was observed or (2) the compound was not tested) | A (the compound was tested and at least 50 percent mortality was observed) |  | 
COC1C(C)OC(ON=Cc2ccc(-c3nn(-c4ccc(Cl)c(Cl)c4)c(=O)[nH]3)cc2)C(OC)C1OC (stereo not drawn) [Compound 98] | B (either (1) the compound was tested and less than 50 percent mortality was observed or (2) the compound was not tested) | B (either (1) the compound was tested and less than 50 percent mortality was observed or (2) the compound was not tested) | A (the compound was tested and at least 50 percent mortality was observed) |  | 
COC1C(C)OC(ON=Cc2ccc(-c3nn(-c4c(F)c(F)c(C(F)(F)F)c(F)c4F)c(=O)[nH]3)cc2)C(OC)C1OC (stereo not drawn) [Compound 99] | B (either (1) the compound was tested and less than 50 percent mortality was observed or (2) the compound was not tested) | B (either (1) the compound was tested and less than 50 percent mortality was observed or (2) the compound was not tested) | A (the compound was tested and at least 50 percent mortality was observed) |  | 
COC1C(C)OC(ON=Cc2ccc(-c3nn(-c4ccc(F)cc4F)c(=O)[nH]3)cc2)C(OC)C1OC (stereo not drawn) [Compound 100] | B (either (1) the compound was tested and less than 50 percent mortality was observed or (2) the compound was not tested) | B (either (1) the compound was tested and less than 50 percent mortality was observed or (2) the compound was not tested) | A (the compound was tested and at least 50 percent mortality was observed) |  | 
COC1C(C)OC(ON=Cc2ccc(-c3nn(-c4ccc(OC(F)(F)F)cc4)c(=O)[nH]3)cc2)C(OC)C1OC (stereo not drawn) [Compound 101] | B (either (1) the compound was tested and less than 50 percent mortality was observed or (2) the compound was not tested) | B (either (1) the compound was tested and less than 50 percent mortality was observed or (2) the compound was not tested) | A (the compound was tested and at least 50 percent mortality was observed) |  | 
COC1C(C)OC(ON=Cc2ccc(-c3ncn(-c4ccc(Br)cc4)n3)cc2)C(OC)C1OC (stereo not drawn) [Compound 102] | B (either (1) the compound was tested and less than 50 percent mortality was observed or (2) the compound was not tested) | B (either (1) the compound was tested and less than 50 percent mortality was observed or (2) the compound was not tested) | B (either (1) the compound was tested and less than 50 percent mortality was observed or (2) the compound was not tested) |  | 
CO[C@@H]1[C@@H](OC)[C@H](C)O[C@@H](ON=Cc2ccc(-c3ncn(-c4ccc([S+]([O-])C(F)(F)F)cc4)n3)cc2)[C@@H]1OC (stereo partly drawn) [Compound 103, 4-[1-(4-trifluoromethanesulfinylphenyl)-1H-[1,2,4]triazol-3-yl]-benzaldehyde O-((2S,3R,4R,5S,6S)-3,4,5-trimethoxy-6-methyl-tetrahydropyran-2-yl)-oxime] |  | B (either (1) the compound was tested and less than 50 percent mortality was observed or (2) the compound was not tested) | A (the compound was tested and at least 50 percent mortality was observed) | < 50% | > 50%
CO[C@@H]1[C@@H](OC)[C@H](C)O[C@@H](ON=Cc2ccc(-c3ncn(-c4ccc(S(=O)(=O)C(F)(F)F)cc4)n3)cc2)[C@@H]1OC [Compound 104, 4-[1-(4-trifluoromethanesulfonylphenyl)-1H-[1,2,4]triazol-3-yl]-benzaldehyde O-((2S,3R,4R,5S,6S)-3,4,5-trimethoxy-6-methyl-tetrahydropyran-2-yl)-oxime] |  | B (either (1) the compound was tested and less than 50 percent mortality was observed or (2) the compound was not tested) | A (the compound was tested and at least 50 percent mortality was observed) | < 50% | > 50%
